Usually EC50 stands for the concentration needed to bring the measured effect to its halfway point. Lower therefore signals a more potent agent. Broadly, the IC50 is the point on the concentration scale where inhibition reaches its midpoint.

13 molecules from US11286263B2, “Macrocyclic fluorine substituted indole derivatives” (The Broad Institute, Inc., priority 2017, dated 2022) can be followed below.

Experiment [1] concerns SUDHL10. The experiment is described as follows: Induction of caspase-3/7 activity, SUDHL10 (Assay 4). The class given is cell-based. The conditions noted are these: SUDHL10 cells. The gist of the method: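 DLBCL lines treated with compounds for 3 h at 37° C.; caspase-3/7 activity read by Caspase-Glo 3/7 luminescence. Medium-only background subtracted; EC50 fitted with bottom fixed at 1 and top set to reference compound's maximal induction.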

Experiment [2] concerns the target BCL-2 (Homo sapiens (Human), UniProt P10415). The experiment is described as follows: Protein-protein interaction assay BCL-2/Bad BH3 peptide (BCL-2 assay), TR-FRET. It is filed as binding. The conditions noted are these: BCL-2/Bad BH3 peptide TR-FRET; median. As for the experimental part: Assay 3 Protein-Protein Interaction assay: BCL-2/Bad BH3 Peptide (BCL-2 Assay)
The dose-dependent inhibition by the compounds described in this invention of the interaction between BCL-2 and the BH3 domain of Bad (both human) was determined using a steady state binding competition assay with time-resolved fluorescence energy transfer (TR-FRET) readout. For that purpose BCL-2 (amino acids 1-211, C-terminal fused to a hexahistidine (6× His) tag (SEQ ID 5) and a synthetic Bad BH3-derived peptide of sequence Biotin-PEG2-PEG2-NLWAAQRYGRELRR-Nle-SDEFVDSFKK-amide (SEQ ID 4) served as protein receptor and tracer ligand respectively. The recombinant BCL-2 protein (expressed in E. coli) was purchased from BPS Bioscience (San Diego, Calif., USA). The Bad BH3-derived peptide can be obtained from e.g. Biosyntan (Berlin, Germany).
In the assay 11 different concentrations of each compound (0.1 nM, 0.33 nM, 1.1 nM, 3.8 nM, 13 nM, 44 nM, 0.15 μM, 0.51 μM, 1.7 μM, 5.9 μM and 20 μM) were typically measured as duplicates in the same microtiter plate. For that, 100-fold concentrated DMSO solutions were prepared by serial dilutions (1:3.4) of a 2 mM stock solution in a clear, 384-well microtiter plate (Greiner Bio-One, Frickenhausen, Germany). From there, 50 nl were transferred in a dark test plate (Greiner Bio-One, Frickenhausen, Germany). The assay was initiated by addition of 2 μl of a 2,5-fold concentrated His-BCL-2 solution (usually for a 1 nM end concentration in 5 μl reaction volume) in aqueous assay buffer [50 mM Tris/HCl pH 7, 100 mM sodium chloride (NaCl), 50 mM potassium fluoride (KF), 0.005% Tween-20, 2 mM DTT, 0.1% bovine gamma globulin (BGG)] to the compounds in the assay plate. This was followed by a 10-minute incubation step at 22° C. for pre-equilibration of the putative complex between His-BCL-2 and the compounds. After that, 3 μl of a 1.67-fold concentrated solution (in assay buffer) consisting of Bad BH3-derived peptide (1 nM end concentration) and TR-FRET detection reagents [1.67 nM anti-His-Eu cryptate and 1.67 nM streptavidin-XL665 (both from Cisbio Bioassays, Codolet, France)], were added.
The mixture was incubated in the dark for one hour at 22° C. and then overnight at 4° C. The formation of BCL-2/Bad complexes was determined by measuring the resonance energy transfer of the anti-His-Eu-cryptate antibody to the streptavidin-XL665 present in the reaction. For that purpose, the fluorescence emission at 620 nm and 665 nm after excitation at 330-350 nm was measured in a TR-FRET measuring instrument, for instance a Rubystar or a Pherastar (both from BMG Lab Technologies, Offenburg, Germany) or a Viewlux (Perkin-Elmer). The ratio of the emission at 665 nm and at 622 nm was used as indicator of the amount of BCL-2/Bad complexes present.
The resulting data (ratio) were normalized, taking 0% inhibition as the mean value of control measurements (usually 32 data points) where all reagents were included. In this case 50 nl DMSO were used instead of compounds. A 100% inhibition corresponded to the mean value of control measurements (usually 32 data points) where all reagents except BCL-2 were included. IC50 values were determined by regression analysis based on a 4 parameter equation (minimum, maximum, IC50, Hill; Y=Max+(Min−Max)/(1+(X/IC50)^Hill) using the Screener Software (Genedata).

Experiment [3] deals with MV-4-11. The experiment is described as follows: Antiproliferation assay MV-4-11 (Assay 7). It is filed as cell-based. The conditions noted are these: MV-4-11 cells, 72 h, CellTiter-Glo, single determinations, read-out: IC50 Antiproli MV-4-11. The gist of the method:
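Treated cells sat 72 h in a humidified 37 °C incubator, outer wells unused, before CellTiter-Glo reagent and a 10 min wait preceded luminescence reading; identical measurement of a parallel day 0 plate defined time zero.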
(In general: ATP-based viability assays read luminescence as a measure of living cells.)

The mark [4] stands for this setting: Homo sapiens, SU-DHL10, 3 h, Caspase-Glo 3/7, median.

SMILES strings stand for the structures. Values joined by “and” are separate entries in the source; they are usually repeats but may differ in a detail not shown here. Equal entries are not always repeated. Structures can show the parent of a compound that is named as a salt. Where two headings read alike, the source gives them in different places. Bounds are passed on as bounds.

BCL-2, sequence (P10415 1-211): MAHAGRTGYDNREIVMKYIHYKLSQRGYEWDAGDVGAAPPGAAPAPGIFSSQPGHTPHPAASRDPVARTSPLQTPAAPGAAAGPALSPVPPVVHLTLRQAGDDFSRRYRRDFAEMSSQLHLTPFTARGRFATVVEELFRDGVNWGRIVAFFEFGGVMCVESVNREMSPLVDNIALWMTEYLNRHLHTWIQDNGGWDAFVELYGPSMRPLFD

With `CCc1c2c(nn1C)COCCCCn1c(C(=O)O)c(CCCOc3cccc4cc(F)ccc34)c3ccc(F)c-2c31` (single isomer, unassigned; enantiomer 1) [Example 22, 3-ethyl-4-fluoro-7-{3-[(6-fluoronaphthalen-1-yl)oxy]propyl}-2-methyl-2,10,11,12,13,15-hexahydropyrazolo[4′,3′:9,10][1,6]oxazacycloundecino[8,7,6-hi]indole-8-carboxylic acid-N-ethylethanamine salt (enantiomer 1)], in experiment [1] (3 h, Caspase-Glo 3/7, median), the response was half-maximal at 0.38 µM (EC50).
Regarding `CCc1c2c(nn1C)CN(C)CCCCn1c(C(=O)O)c(CCCOc3cccc4cc(F)ccc34)c3ccc(F)c-2c31` (racemic) [Example 53, (rac)-3-ethyl-4-fluoro-7-{3-[(6-fluoro-1-naphthyhoxy]propyl}-2,14-dimethyl-10,11,12,13,14,15-hexahydro-2H-pyrazolo[3′,4′:8,9][1,6]diazacycloundecino[10,11,1-hi]indole-8-carboxylic acid], the IC50 in experiment [2] was over 20 µM. Moreover, in experiment [1] (setting [4]), a half-maximal response (EC50) required 0.49 µM.
`CCc1c2c(nn1C)COCCCCn1c(C(=O)O)c(CCCOc3ccc(F)c4ccccc34)c3ccc(F)c-2c31` (single isomer, unassigned; enantiomer 1) [Example 27, 3-ethyl-4-fluoro-7-{3-[(4-fluoronaphthalen-1-yl)oxy]propyl}-2-methyl-2,10,11,12,13,15-hexahydropyrazolo[4′,3′:9,10][1,6]oxazacycloundecino[8,7,6-hi]indole-8-carboxylic acid-N-ethylethanamine salt (enantiomer 1)] gave an EC50 in experiment [1] (3 h, Caspase-Glo 3/7, median) of 1.6 µM.
`CCc1c2c(nn1C)COCCCCn1c(C(=O)O)c(CCCOc3cccc4ccccc34)c3ccc(F)c-2c31` (single isomer, unassigned; enantiomer 1) [Example 7, 3-ethyl-4-fluoro-2-methyl-7-{3-[(naphthalen-1-yl)oxy]propyl}-2,10,11,12,13,15-hexahydro-pyrazolo[4′,3′:9,10][1,6]oxazacycloundecino[8,7,6-hi]indole-8-carboxylic acid-N-ethylethanamine salt (enantiomer 1)]: the midpoint of the response in experiment [1] (3 h, Caspase-Glo 3/7, median), the EC50, lay at 1 µM. Further, in experiment [3] (listed as 07), the IC50 is 2.37 µM and 1.94 µM.
For the molecule `CCc1c2c(nn1C)CN(C)CCCCn1c(C(=O)O)c(CCCOc3cccc4ccccc34)c3ccc(F)c-2c31` (racemic) [Example 54, (rac)-3-ethyl-4-fluoro-2,14-dimethyl-7-[3-(1-naphthyloxy)propyl]-10,11,12,13,14,15-hexahydro-2H-pyrazolo[3′,4′:8,9][1,6]diazacycloundecino[10,11,1-hi]indole-8-carboxylic acid], in experiment [2], the IC50 is over 20 µM. The molecule also returned an EC50 in experiment [1] (setting [4]) of 0.68 µM.
For `CCc1c2c(nn1C)COC/C=C\Cn1c(C(=O)O)c(CCCOc3cccc4ccccc34)c3ccc(F)c-2c31` (racemic) [Example 5, (rac)-(11Z)-3-ethyl-4-fluoro-2-methyl-7-[3-(naphthalen-1-yloxy)propyl]-2,10,13,15-tetrahydro-pyrazolo[4′,3′:9,10][1,6]oxazacycloundecino[8,7,6-hi]indole-8-carboxylic acid], in that order: over 20 µM and 3.5 µM.
`CCc1c2c(nn1C)COCCCCn1c(C(=O)O)c(CCCOc3cccc4cc(F)ccc34)c3ccc(F)c-2c31` (single isomer, unassigned; enantiomer 2) [Example 23, 3-ethyl-4-fluoro-7-{3-[(6-fluoronaphthalen-1-yl)oxy]propyl}-2-methyl-2,10,11,12,13,15-hexahydropyrazolo[4′,3′:9,10][1,6]oxazacycloundecino[8,7,6-hi]indole-8-carboxylic acid-N-ethylethanamine salt (enantiomer 2)] came in with an EC50 in experiment [1] (3 h, Caspase-Glo 3/7, median) of 11 µM. The IC50 in experiment [3] was 15.5 µM.
In experiment [1] (setting [4]), `Cc1c2c(nn1C)COCCCCn1c(C(=O)O)c(CCCOc3cccc4ccccc34)c3ccc(F)c-2c31` (single isomer, unassigned; enantiomer 1) [Example 3, 4-fluoro-2,3-dimethyl-7-[3-(naphthalen-1-yloxy)propyl]-2,10,11,12,13,15-hexahydropyrazolo-[4′,3′:9,10][1,6]oxazacycloundecino[8,7,6-hi]indole-8-carboxylic acid-N-ethylethanamine salt (enantiomer 1)] showed an EC50 of 1.3 µM.
The molecule `Cc1c2c(nn1C)COCCCCn1c(C(=O)O)c(CCCOc3cccc4ccccc34)c3ccc(F)c-2c31` (racemic) [Example 2, (rac)-4-fluoro-2,3-dimethyl-7-[3-(naphthalen-1-yloxy)propyl]-2,10,11,12,13,15-hexahydro-pyrazolo[4′,3′:9,10][1,6]oxazacycloundecino[8,7,6-hi]indole-8-carboxylic acid] registered an EC50 in experiment [1] (setting [4]) of 1.3 µM.
In the case of `CCc1c2c(nn1C)CN(C)CCCCn1c(C(=O)O)c(CCCOc3cccc4c3CCCC4)c3ccc(F)c-2c31` (racemic) [Example 52, (rac)-3-ethyl-4-fluoro-2,14-dimethyl-7-[3-(5,6,7,8-tetrahydronaphthalen-1-yloxy)propyl]-10,11,12,13,14,15-hexahydro-2H-pyrazolo[3′,4′:8,9][1,6]diazacycloundecino[10,11,1-hi]indole-8-carboxylic acid], the IC50 in experiment [2] is over 20 µM. The same molecule yielded an EC50 in experiment [1] (setting [4]) of 0.21 µM.
In experiment [1] (3 h, Caspase-Glo 3/7, median), `Cc1c2c(nn1C)COCCCCn1c(C(=O)O)c(CCCOc3cccc4cc(F)ccc34)c3ccc(F)c-2c31` (single isomer, unassigned; enantiomer 1) [Example 13, 4-fluoro-7-{3-[(6-fluoronaphthalen-1-yl)oxy]propyl}-2,3-dimethyl-2,10,11,12,13,15-hexahydro-pyrazolo[4′,3′:9,10][1,6]oxazacycloundecino[8,7,6-hi]indole-8-carboxylic acid-N-ethylethanamine salt (enantiomer 1)] displayed an EC50 of 0.68 µM. Also, in experiment [3], the IC50 was 0.679 µM and 0.412 µM.
Molecule `CCc1c2c(nn1C)COCCCCn1c(C(=O)O)c(CCCOc3cccc4cc(F)ccc34)c3ccc(F)c-2c31` (single isomer, unassigned; enantiomer 1) [Example 24, 3-ethyl-4-fluoro-7-{3-[(6-fluoronaphthalen-1-yl)oxy]propyl}-2-methyl-2,10,11,12,13,15-hexahydropyrazolo[4′,3′:9,10][1,6]oxazacycloundecino[8,7,6-hi]indole-8-carboxylic acid (enantiomer 1)] gave an IC50 in experiment [2] of over 20 µM. In experiment [1] (3 h, Caspase-Glo 3/7, median), the EC50 was 0.54 µM.
In turn, `CCc1nn(C)c2c1-c1c(F)ccc3c(CCCOc4cccc5cc(F)ccc45)c(C(=O)O)n(c13)CCCCOC2` (single isomer, unassigned; enantiomer 1) [Example 39, 3-ethyl-4-fluoro-7-{3-[(6-fluoronaphthalen-1-yl)oxy]propyl}-1-methyl-1,10,11,12,13,15-hexahydropyrazolo[4′,3′:9,10][1,6]oxazacycloundecino[8,7,6-hi]indole-8-carboxylic acid-N-ethylethanamine salt (enantiomer 1)] displayed an EC50 in experiment [1] (3 h, Caspase-Glo 3/7, median) of 0.94 µM.
